Experiments:
HT-29 = assay: Antiproliferative assay (resazurin, 72 h); assay type: cell-based, human; details: mean ± SE, 72 h
Description: (§1) Colon adenocarcinoma (HT-29) and T-cell leukemia (Jurkat) cells were grown in RPMI-1640 medium (Gibco, Milano, Italy). Promyelocytic leukemia cells (HL-60), non-small cell lung carcinoma (A549), cervix carcinoma (HeLa) and breast adenocarcinoma (MDA-MB-231) cells were grown in DMEM medium (Gibco, Milano, Italy). Both media were supplemented with 115 units/mL of penicillin G (Gibco, Milano, Italy), 115 μg/mL of streptomycin (Invitrogen, Milano, Italy) and 10% fetal bovine serum (Invitrogen, Milano, Italy). All the cell lines used were purchased from the American Type Culture Collection (ATCC, Manassas, VA, USA). Stock solutions (10 mM) of the compounds were obtained by dissolving them in DMSO.
(§2) The cells were seeded in 96-well plates at the appropriate density for each cell line. After 24 h, the cells were treated by performing serial 5-fold dilutions of the tested compounds starting from a concentration of 10 μM. All experimental conditions were tested in triplicate for statistical analysis. The plates were incubated for 72 h at 37 °C in a humidified 5% CO2 atmosphere. At the end of the incubation period, 10 μL of 100 μg/mL resazurin solution was added to each well; then, the plate was re-incubated for 3–4 h. The fluorescence of the wells in each plate was monitored using a Spark 10 M spectrophotometer (Tecan Group Ltd., Mannedorf, Switzerland) with a 535 nm excitation wavelength and a 600 nm emission wavelength.

HeLa = assay: Antiproliferative assay (resazurin, 72 h); assay type: cell-based, human
Description: as §1, §2

A549 = assay: Antiproliferative assay (resazurin, 72 h); assay type: cell-based, human
Description: as §1, §2

Jurkat = assay: Antiproliferative assay (resazurin, 72 h); assay type: cell-based, human; details: mean ± SE, 72 h
Description: as §1, §2

MDA-MB-231 = assay: Antiproliferative assay (resazurin, 72 h); assay type: cell-based, human; details: for IC50: mean ± SE, 72 h
Description: as §1, §2

[1] = Homo sapiens, HeLa, Table 1, mean ± SE
[2] = Homo sapiens, A549, Table 1, mean ± SE
[3] = Homo sapiens, MDA-MB-231, Table 1
[4] = Homo sapiens, HeLa, Table 2, mean ± SE
[5] = Homo sapiens, A549, Table 2, mean ± SE
[6] = Homo sapiens, MDA-MB-231, Table 2

| Compound | melting point | IC50 (HT-29; Homo sapiens, HT-29, Table 1) | IC50 (HeLa; [1]) | IC50 (A549; [2]) | IC50 (Jurkat; Homo sapiens, Jurkat, Table 1) | IC50 (MDA-MB-231; [3]) | IC50 (HT-29; Homo sapiens, HT-29, Table 2) | IC50 (HeLa; [4]) | IC50 (A549; [5]) | IC50 (Jurkat; Homo sapiens, Jurkat, Table 2) | IC50 (MDA-MB-231; [6]) | fold more active than 7i (MDA-MB-231; MDA-MB-231 cells) | IC50 (HT-29; Table 2) | IC50 (HeLa; Table 2, mean ± SE) | IC50 (A549; Table 2, mean ± SE) | IC50 (Jurkat; Table 2) | IC50 (MDA-MB-231; Table 2) |
| --- | --- | --- | --- | --- | --- | --- | --- | --- | --- | --- | --- | --- | --- | --- | --- | --- | --- |
| COc1cc(Nc2cc(C)nc3nc(Nc4ccccc4)nn23)cc(OC)c1OC [Compound 7d, 5-Methyl-N2-phenyl-N7-(3,4,5-trimethoxyphenyl)-[1,2,4]triazolo [1,5-a]pyrimidine-2,7-diamine] | 241 °C | 820 ± 70 nM | 520 ± 60 nM | 2300 ± 120 nM | 590 ± 10 nM | 1430 ± 140 nM |  |  |  |  |  |  |  |  |  |  |  |
| Cc1cc(Nc2ccc(F)c(Cl)c2)n2nc(NCc3ccc(Cl)cc3)nc2n1 [Compound 8a, N^7-(3-Chloro-4-fluorophenyl)-N^2-(4-chlorobenzyl)-5-methyl-[1,2,4]triazolo [1,5-a]pyrimidine-2,7-diamine] | 186 to 188 °C |  |  |  |  |  | 340 ± 20 nM | 190 ± 50 nM | 320 ± 60 nM | 500 ± 310 nM | 390 ± 40 nM |  |  |  |  |  |  |
| COc1cc(Nc2cc(C)nc3nc(NCc4ccccc4)nn23)cc(OC)c1OC [Compound 7i, N^2-Benzyl-5-methyl-N^7-(3,4,5-trimethoxyphenyl)-[1,2,4]triazolo [1,5-a]pyrimidine-2,7-diamine] | 173 to 175 °C | 3530 ± 140 nM | 3200 ± 240 nM | 3750 ± 260 nM | 4400 ± 380 nM | 2710 ± 310 nM |  |  |  |  |  |  |  |  |  |  |  |
| COc1cccc(CNc2nc3nc(C)cc(Nc4cc(OC)c(OC)c(OC)c4)n3n2)c1 [Compound 7t, N^2-(3-Methoxybenzyl)-5-methyl-N^7-(3,4,5-trimethoxyphenyl)-[1,2,4]triazolo [1,5-a]pyrimidine-2,7-diamine] | 150 to 152 °C | 1040 ± 80 nM | 880 ± 90 nM | 1650 ± 140 nM | 1650 ± 110 nM | 1780 ± 150 nM |  |  |  |  |  |  |  |  |  |  |  |
| Cc1ccc(CNc2nc3nc(C)cc(Nc4cccc(Cl)c4)n3n2)cc1 [Compound 8e, N^7-(3-Chlorophenyl)-N^2-(4-methylbenzyl)-5-methyl-[1,2,4]triazolo [1,5-a]pyrimidine-2,7-diamine] | 166 to 168 °C |  |  |  |  |  | 830 ± 3 nM | 680 ± 260 nM | 1640 ± 370 nM | 630 ± 140 nM | 2760 ± 550 nM |  |  |  |  |  |  |
| C#Cc1cccc(Nc2cc(C)nc3nc(NCc4ccc5c(c4)OCO5)nn23)c1 [Compound 8p, N^2-(Benzo[d][1,3]dioxol-5-ylmethyl)-N^7-(3-ethynylphenyl)-5-methyl-[1,2,4]triazolo [1,5-a]pyrimidine-2,7-diamine] | 165 to 168 °C |  |  |  |  |  | 2080 ± 140 nM | 1600 ± 70 nM | 1780 ± 510 nM | 2380 ± 180 nM | 3090 ± 570 nM |  |  |  |  |  |  |
| Cc1cc(Nc2cccc(F)c2)n2nc(NCc3ccc4c(c3)OCO4)nc2n1 [Compound 8h, N^2-(Benzo[d][1,3]dioxol-5-ylmethyl)-N^7-(3-fluorophenyl)-5-methyl-[1,2,4]triazolo [1,5-a]pyrimidine-2,7-diamine] | 174 to 176 °C |  |  |  |  |  | 9110 ± 930 nM | 5880 ± 2960 nM | 2440 ± 130 nM | 5980 ± 1580 nM | 9250 ± 120 nM |  |  |  |  |  |  |
| COc1cc(Nc2cc(C)nc3nc(Nc4ccc(F)cc4)nn23)cc(OC)c1OC [Compound 7e, N2-(4-Fluorophenyl)-5-methyl-N7-(3,4,5-trimethoxyphenyl)-[1,2,4]triazolo [1,5-a]pyrimidine-2,7-diamine] | 247 °C | 690 ± 60 nM | 390 ± 20 nM | 1020 ± 80 nM | 820 ± 1 nM | 710 ± 70 nM |  |  |  |  |  |  |  |  |  |  |  |
| COc1cc(Nc2cc(C)nc3nc(NCc4ccncc4)nn23)cc(OC)c1OC [Compound 7j, 5-Methyl-N^2-(pyridin-4-ylmethyl)-N^7-(3,4,5-trimethoxyphenyl)-[1,2,4]triazolo [1,5-a]pyrimidine-2,7-diamine] | 184 to 186 °C | 2530 ± 250 nM | 3010 ± 300 nM | > 10000 nM | 9640 ± 800 nM | 59 ± 10 nM |  |  |  |  |  | 46 fold |  |  |  |  |  |
| Cc1cc(Nc2ccc(C(F)(F)F)cc2)n2nc(NCc3ccc4c(c3)OCO4)nc2n1 [Compound 8n, N^2-(Benzo[d][1,3]dioxol-5-ylmethyl)-N^7-(4-trifluoromethylphenyl)-5-methyl-[1,2,4]triazolo [1,5-a]pyrimidine-2,7-diamine] | 158 to 160 °C |  |  |  |  |  | 5180 ± 270 nM | 3640 ± 1010 nM | 3270 ± 570 nM | 1600 ± 290 nM | 6130 ± 1460 nM |  |  |  |  |  |  |
| COc1ccccc1CNc1nc2nc(C)cc(Nc3cc(OC)c(OC)c(OC)c3)n2n1 [Compound 7u, N^2-(2-Methoxybenzyl)-5-methyl-N^7-(3,4,5-trimethoxyphenyl)-[1,2,4]triazolo [1,5-a]pyrimidine-2,7-diamine] | 208 to 210 °C | > 10000 nM | > 10000 nM | > 10000 nM | > 10000 nM | 4400 ± 260 nM |  |  |  |  |  |  |  |  |  |  |  |
| C#Cc1cccc(Nc2cc(C)nc3nc(NCc4ccc(Cl)cc4)nn23)c1 [Compound 8c, N^7-(3-Ethynylphenyl)-N^2-(4-chlorobenzyl)-5-methyl-[1,2,4]triazolo [1,5-a]pyrimidine-2,7-diamine] | 190 to 192 °C |  |  |  |  |  | 490 ± 60 nM | 420 ± 50 nM | 610 ± 200 nM | 500 ± 60 nM | 1710 ± 60 nM |  |  |  |  |  |  |
| Cc1cc(Nc2cccc(Cl)c2)n2nc(NCCCc3ccccc3)nc2n1 [Compound 8t] |  |  |  |  |  |  |  |  |  |  |  |  | 380 ± 30 nM | 153 ± 10 nM | 260 ± 70 nM | 140 ± 70 nM | 1320 ± 870 nM |
| COc1cc(Nc2cc(C)nc3nc(NCCc4ccc(F)cc4)nn23)cc(OC)c1OC [Compound 7aa, N^2-(4-Fluorophenethyl)-5-methyl-N^7-(3,4,5-trimethoxyphenyl)-[1,2,4]triazolo [1,5-a]pyrimidine-2,7-diamine] | 150 to 152 °C | 2830 ± 220 nM | 2500 ± 270 nM | > 10000 nM | 9610 ± 890 nM | > 10000 nM |  |  |  |  |  |  |  |  |  |  |  |
| COc1ccc(CCNc2nc3nc(C)cc(Nc4cc(OC)c(OC)c(OC)c4)n3n2)cc1 [Compound 7ac, N^2-(4-Methoxyphenethyl)-5-methyl-N^7-(3,4,5-trimethoxyphenyl)-[1,2,4]triazolo [1,5-a]pyrimidine-2,7-diamine] | 214 to 216 °C | 6880 ± 490 nM | 5050 ± 630 nM | 8880 ± 880 nM | 9590 ± 1170 nM | 1650 ± 190 nM |  |  |  |  |  |  |  |  |  |  |  |
| Cc1cc(Nc2cccc(Cl)c2)n2nc(NCc3ccc(Cl)cc3)nc2n1 [Compound 8b, N^7-(3-Chlorophenyl)-N^2-(4-chlorobenzyl)-5-methyl-[1,2,4]triazolo [1,5-a]pyrimidine-2,7-diamine] | 158 to 160 °C |  |  |  |  |  | 1640 ± 220 nM | 810 ± 150 nM | 1740 ± 130 nM | 880 ± 500 nM | 1880 ± 80 nM |  |  |  |  |  |  |
| COc1cc(Nc2cc(C)nc3nc(NCCc4ccc(Cl)cc4)nn23)cc(OC)c1OC [Compound 7ab, N^2-(4-Chlorophenethyl)-5-methyl-N^7-(3,4,5-trimethoxyphenyl)-[1,2,4]triazolo [1,5-a]pyrimidine-2,7-diamine] | 196 to 198 °C | > 10000 nM | 5810 ± 480 nM | > 10000 nM | 5940 ± 500 nM | > 10000 nM |  |  |  |  |  |  |  |  |  |  |  |
